# Laboratory results taken from the METLIN SMRT retention time set (Domingo-Almenara et al. 2019).
# Experiment: gradient 5% acetonitrile 3 min, to 50% in 2 min, to 85% in 15 min, held 3 min, 100 µL/min
# Conditions: column: Zorbax Extend-C18 2.1 x 50 mm; eluents: water / acetonitrile, 0.1% formic acid
# Summary of the method: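 In both positive and negative ionization mode, a quadrupole time-of-flight mass spectrometer coupled to HPLC analyzed pure standards run in mixtures of ~100 molecules. The Zorbax Extend-C18 column (2.1 × 50 mm, 1.8 μm) was operated at 100 μL/min with water and acetonitrile, each containing 0.1% formic acid. The dead volume was 40 μL and the dwell volume 900 μL. Retention time came from adduct peaks that were computationally picked and individually inspected by hand.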
row,Structure (SMILES),RP-LC retention time
1,CCN(CC)C(=O)c1cc(=O)[nH]c2c(C)cccc12,657 s
2,Cn1cc(-c2cc3n(n2)CCC(=O)N3CC(=O)NCc2ccccn2)c2ccccc21,626 s
3,CCc1ccc(S(=O)(=O)N2CC(COC)C3(CCNCC3)C2)cc1 (stereo not drawn),630 s
4,O=C(Cc1ccsc1)Nc1cccn2ncnc12,699 s
5,O=C(NCc1ccc(F)cc1)N1CCC(OC2CCN(Cc3ccccc3)CC2)CC1,658 s
6,O=C(CN1C(=O)CCc2cc(Br)ccc21)N1CCN(c2ccccc2F)CC1,951 s
7,COc1ccc(S(=O)(=O)N2CCOC2CNC(=O)C(=O)NCc2ccccn2)cc1C (stereo not drawn),603 s
8,O=C(N[C@H]1C[C@@H]2C[C@H]1CN2C(=O)NCc1ccco1)c1ccccc1,652 s
9,COc1ccccc1-c1noc(CN2C(=O)COc3cc(Cl)ccc32)n1,974 s
10,O=S(=O)(c1ccc2nncn2c1)N(Cc1ccccc1F)c1ccc2c(c1)OCCO2,745 s
11,CC(C(=O)O)c1ccc(N2Cc3ccccc3C2=O)cc1 (stereo not drawn),828 s
12,COc1ccc(/C=C2\CCCc3ccccc3C2=O)cc1,1140 s
13,COc1ccc(OCc2noc(CNC(=O)C(C)n3nnc4ccccc4c3=O)n2)cc1 (stereo not drawn),768 s
14,CCc1ccc(S(=O)(=O)N2CCC(c3cc(N)on3)CC2)cc1,813 s
15,C[C@H]1CC[C@@H]2[C@@H](C)[C@H]3[C@H](C[C@H]4[C@@H]5CC[C@H]6C[C@@H](O)CC[C@]6(C)[C@H]5CC[C@]34C)N2C1,763 s
16,CC(C)(C)c1ccc(C(=O)Nc2nnc(-c3ccccn3)o2)cc1,751 s
17,CCN(C(=O)c1cc2c(=O)oc3ccccc3c2n1C)c1ccccc1,919 s
18,COCCN1C(=O)c2ccccc2C(C(=O)NCCCc2ccccc2)C12CCCC2 (stereo not drawn),944 s
19,O=C1COc2cc(S(=O)(=O)N3CCC(C(=O)NC4CCCCC4)CC3)c(Cl)cc2N1,772 s
20,CCC(=O)N(Cc1ccc(F)cc1)C(C)C(=O)c1c(C)c(C(=O)OC)n(C)c1C (stereo not drawn),922 s
21,Nc1nc(-c2ccc(F)cc2)nn1C(=O)c1ccc(F)cc1,969 s
22,COc1ccc(CCNC(=O)C2CCN(S(=O)(=O)c3cn(C(C)C)cn3)CC2)cc1OC,689 s
23,Cc1cc(NC(=O)C2CCCN2S(=O)(=O)c2ccc(Cl)s2)n(C(C)C)n1 (stereo not drawn),776 s
24,CN1CCN(CCNC(=O)CC2CCN(C(=O)c3cc4cc(Cl)ccc4[nH]3)CC2)CC1,618 s
25,CCOc1ccc(-c2noc(CN3N=NC4C(=O)N(c5ccc(CC)cc5)C(=O)C43)n2)cc1OC (stereo not drawn),1030 s

row,Structure (SMILES),RP-LC retention time
1,Cc1noc(C)c1S(=O)(=O)NCCn1c(C)cnc1-c1ccncc1,570 s
2,CCOc1ccccc1NC(=O)NCC(c1cccnc1)c1c[nH]c2ccccc12 (stereo not drawn),684 s
3,COc1ccc(-c2nc3ccccn3c2NCc2ccccc2)cc1,724 s
4,Cc1oc(-c2ccc(C(=O)NCCN(C)C)cc2)nc1CSc1ccccc1,696 s
5,CS(=O)(=O)Nc1cccc(NC(=O)C2CCN(CC(=O)Nc3ccc(F)cc3)CC2)c1,564 s
6,Cc1noc(C)c1CNC(=O)NC1CCCCC1,706 s
7,CCn1cc(C(=O)NCc2ccccc2)c(S(=O)(=O)N2CCSCC2)n1,880 s
8,CCOc1ccc(-c2nc(Cc3noc(-c4cccc(OC)c4)n3)c(C)o2)cc1,1220 s
9,Cc1nc(-c2ccc(S(=O)(=O)Nc3ccc(S(N)(=O)=O)cc3)cc2)co1,706 s
10,CC(C)Oc1ccc(CN2CCn3c(nn(CC4CC4)c3=O)C2)cc1,761 s
11,COc1ccc2c(c1)C1(CCN(C(=O)c3cccc(C)c3)C1)C(=O)N2 (stereo not drawn),738 s
12,CCc1csc(-c2ccc(S(=O)(=O)NC(CC)c3cccs3)s2)n1 (stereo not drawn),1150 s
13,O=C(Cc1c[nH]c2ccccc12)NCCc1c[nH]c2ccc(Cl)cc12,857 s
14,CCOCCCNC(=O)N1CCN(c2nc3ccccc3n3cccc23)CC1,618 s
15,CCn1c(C(=O)NC(C)CCc2ccco2)cc2sc(Cl)cc21 (stereo not drawn),738 s
16,Cc1nc2cc(-c3noc(-c4cc(F)ccc4F)n3)ccc2o1,1070 s
17,Cc1nc(-c2nnn(Cc3ccccc3)c2C)no1,836 s
18,Cc1cc([N+](=O)[O-])ccc1NS(=O)(=O)c1cc(Cl)ccc1Cl,1020 s
19,CCOC(=O)c1c(C)c(C(=O)C(C)N(C(=O)c2ccc(Cl)cc2)C2CC2)c(C)n1CC (stereo not drawn),1140 s
20,O=C(NC1CC(=O)N(C2CC2)C1)C1CC=CCC1 (stereo not drawn),591 s
21,CCc1ccccc1S(=O)(=O)N1CCC(n2cnnc2C(C)C)CC1,784 s
22,CCCNC(=O)c1csc(C(=O)NCC)n1,670 s
23,CO[C@@H]1[C@H](OC(=O)/C=C/C=C/C=C/C=C/C(=O)O)CC[C@]2(CO2)[C@H]1[C@@]1(C)O[C@@H]1CC=C(C)C,954 s
24,Cc1noc(C2CN(C(=O)c3ccc(=O)n(C)n3)C2)n1,530 s

# More lines, now with the values ahead:
row,RP-LC retention time,Structure (SMILES)
1,810 s,CC1CCCCN1c1ccn2c(=O)n(CC(=O)Nc3cc(F)cc(F)c3)nc2n1 (stereo not drawn)
2,728 s,CCc1ccc(NC(=O)N2C[C@@H](F)C[C@H]2C(=O)N2CCCCC2)cc1
3,738 s,CC(C)Oc1ccc(CNC(=O)c2nc(N3CCOCC3)c3ccccc3n2)cc1
4,984 s,O=C(NCCc1csc(-c2ccccc2)n1)C1CCN(S(=O)(=O)c2ccc(Cl)cc2)CC1
5,1180 s,Cc1ccc(C)c(N2CCN(C(=O)c3ccc4c(c3)N(C)C(=O)C3CCCCN43)CC2)c1 (stereo not drawn)
6,756 s,COC(=O)c1ccc2c(=O)n(-c3ccc(C)c(C)c3)c(N3CCN(c4ccccn4)CC3)nc2c1
7,688 s,CCn1cnc(S(=O)(=O)N2CCC(C(=O)Nc3ccc4c(c3)OCO4)CC2)c1
8,887 s,CCn1cc(-c2nc(C(=O)N3CCN(c4ccc(OC)cc4)CC3)cs2)c2cccnc21
9,941 s,O=C(Nc1cccc2cccnc12)c1ccc(N2C(=O)[C@@H]3[C@H](C2=O)[C@@H]2C=C[C@H]3C2)cc1
10,797 s,CN1C(=O)CCC2(CNC(=O)Nc3ccccc3F)CCCC=C12 (stereo not drawn)
11,1010 s,O=C1CC(c2noc(-c3ccccc3F)n2)CN1c1ccc(Cl)cc1 (stereo not drawn)
12,550 s,Cc1ncsc1CN1CCC(Cc2ncc(C)n2Cc2ccccc2)C1 (stereo not drawn)
13,583 s,CCn1c(=O)n(CC)c2cc(N3CCCC3)c(NC(=O)CC(=O)OC)cc21
14,707 s,CCn1cc(CN2CCC(C(=O)NC(C)c3ccccc3)CC2)c2cc(OC)ccc21 (stereo not drawn)
15,903 s,Cc1ccc(N2CCC(NC(=O)Nc3cc(F)cc(F)c3)C2=O)cc1C (stereo not drawn)
16,696 s,COc1ccc(Cl)cc1NC(=O)N1CCN(CCn2c(C(F)(F)F)nc3cccnc32)CC1
17,797 s,O=C(NCC1CCCO1)c1nnc(-c2ccc(S(=O)(=O)N3CCCCC3)cc2)o1 (stereo not drawn)
18,725 s,CNC(=O)Cc1csc(-c2ccccc2F)n1
19,766 s,Cc1ccc(-n2nc3c(N4CCCC(C(=O)NCCc5ccccc5)C4)nnc(C)c3c2C)cc1 (stereo not drawn)
20,856 s,O=c1n(Cc2cccc(F)c2)nc2ccc(S(=O)(=O)N3CCCC3)cn12

row,RP-LC retention time,Structure (SMILES)
1,554 s,COCCn1ccc2nc(C)c(C(=O)N3CCN(c4ccccn4)CC3)cc2c1=O
2,553 s,CN(C)c1cc(N2CCCC(NC(=O)c3cccnc3)C2)ncn1 (stereo not drawn)
3,884 s,CC1=C(c2ccc(C)c(C)c2)S(=O)(=O)N=C1N1CCC(C(=O)NCCc2ccco2)CC1
4,859 s,CCN1C(=O)COc2ccc(-c3noc(CNC(=O)Cc4ccc(Cl)cc4)n3)cc21
5,917 s,Cn1cc(S(=O)(=O)N2CCCCC2)cc1C(=O)Nc1ccc2c(c1)OCCO2
6,874 s,CCCS(=O)(=O)N1CCCN(C2=NS(=O)(=O)C(c3ccc(C)cc3)=C2C)CC1
7,585 s,CCOC(=O)CNC(=O)N1CCN(Cc2nc3cccnc3n2-c2ccccc2)CC1
8,761 s,CC(CC(=O)Nc1ccccc1Cl)S(=O)(=O)c1ccc2c(c1)NC(=O)CCS2 (stereo not drawn)
9,813 s,Cc1ccc(NC(=O)c2csc(-c3ccc(N4CCCC4)nc3)n2)c(C)c1
10,682 s,O=C(NCC1CCN(C(=O)Nc2ccc(F)cc2)CC1)c1ccsc1
11,627 s,Cc1cc2nn(CC(=O)Nc3cc(F)ccc3C)c(=O)n2c(-c2ccccc2)n1
12,598 s,COc1ccc(N2CCN(C(=O)c3cn4c(n3)COCC4)CC2)cc1
13,743 s,COCc1nncn1C1CCN(S(=O)(=O)c2ccc(C)cc2C)CC1
14,764 s,Cc1nn(-c2ccc(F)cc2)c(C)c1S(=O)(=O)N1CCC(C(=O)NC2CC2)CC1
15,890 s,O=C(NC1CCCC1)c1cc2n(n1)CCCN(Cc1ccc(Cl)cc1)C2=O
16,579 s,Cc1ccc2c(Nc3cccc(C#N)c3)c(C(=O)N3CCCC3)cnc2n1
17,1200 s,COc1ccc(N2CCN(c3cc(SCC(=O)Nc4cc(Cl)ccc4OC)ncn3)CC2)cc1
18,1020 s,Cc1cc(C)cc(-n2ccnc(NC(=O)Nc3cccc(F)c3)c2=O)c1
19,981 s,Cc1cc(OCC(=O)Nc2ccc(C(C)C)cc2)nc(N2CCN(c3ccccc3)CC2)n1
